Assay results from patent US20050059718A1, “Methods of using zonisamide as an adjunctive therapy for partial seizures” (priority 2003, published 2005).
“Also recorded” adds a separate entry of the source.

Key:
[1] = patients; cited from earlier work
[2] = Text: The clinical manifestations of myeloma vary from smoldering myeloma to symptomatic plasma cell dyscrasia. A lot of variables, alone or in combination, have been used as a discriminating index of malignant proliferation of B-lymphocytes or plasma cells.
T-type Ca2+ currents = details: in vitro; cited from earlier work
carbonic anhydrase = details: relative to acetazolamide; cited from earlier work
rat hippocampal slices = details: 10-30 μg/mL; cited from earlier work
[3] = patients on regular dosages; cited from earlier work
liver enzymes = details: cited from earlier work
[4] = cited from earlier work
sodium channels = details: in vitro; cited from earlier work
[5] = system: GABA/benzodiazepine receptor ionophore complex; details: in vitro; no change in chloride flux; cited from earlier work
[6] = system: dopaminergic and serotonergic neurotransmission; details: in vivo microdialysis; cited from earlier work
[7] = system: cultured mouse spinal cord neurons; details: 10-30 μg/mL, cited from earlier work

SMILES: CCC1(c2ccccc2)C(=O)NCNC1=O [primidone]
- association with multiple myeloma [1]: associated with development of MM

SMILES: CCCC(CCC)C(=O)[O-].[Na+] [sodium valproate]
- seizure control after replacing zonisamide ([2]; 13-month follow-up): prevented convulsions

SMILES: NC(=O)N1c2ccccc2C=Cc2ccccc21 [Carbamazepine]
- association with multiple myeloma [1]: associated with development of MM

SMILES: O=C1NC(=O)C(c2ccccc2)(c2ccccc2)N1 [phenyloin]
- association with multiple myeloma [1]: implicated in several incidents of multiple myeloma

SMILES: NS(=O)(=O)Cc1noc2ccccc12 [zonisamide, 1,2-benzisoxazole-3-methanesulfonamide]
- effect on voltage-dependent, transient inward currents (T-type Ca2+ currents) (T-type Ca2+ currents): reduces voltage-dependent, transient inward currents
- carbonic anhydrase inhibiting activity, inhibition compared to acetazolamide (carbonic anhydrase): 1/50
- neuronal or glial uptake of [3H]-GABA (rat hippocampal slices): without affecting
- correlation between dosage or serum level and immunoglobulin levels [3]: no significant correlation
- liver (hepatic) enzyme induction (liver enzymes): not known to be a hepatic enzyme inducer; also recorded: no liver enzyme inducing activity
- half-life ([4]; in vivo): long half-life
- time required to achieve steady-state levels ([4]; upon reaching a stable dose or following dosage adjustment): up to two weeks
- effect on sodium channels (sodium channels): blocks sodium channels
- binding to GABA/benzodiazepine receptor ionophore complex [5]: binds to the GABA/benzodiazepine receptor ionophore complex in an allosteric fashion
- Bence-Jones protein in urine ([2]; human, in vivo): not demonstrated
- M-protein concentration ([2]; human, in vivo): > 3.5 g/dL
- bone marrow chromosomal analysis ([2]; human, in vivo): normal karyotype of 46 XY
- diagnosis ([2]; human, in vivo): smoldering multiple myeloma
- helper T cell count (CD4) ([2]; human, in vivo): normal
- peripheral blood examination ([2]; human, in vivo): no cytopenia
- serum IgA ([2]; human, in vivo): 40 mg/dL
- serum IgM ([2]; human, in vivo): 38 mg/dL
- serum creatinine, calcium and beta2-microglobulin ([2]; human, in vivo): not elevated
- serum immunoglobulin G (IgG) ([2]; human, in vivo): 3.68 g/dL
- serum protein immunoelectrophoresis ([2]; human, in vivo): M-protein composed of IgG with a single lambda type of L-chain
- dopaminergic and serotonergic neurotransmission [6]: facilitates both dopaminergic and serotonergic neurotransmission
- postsynaptic GABA or glutamate responses ([7]; cultured mouse spinal cord neurons): without affecting postsynaptic GABA or glutamate responses
- synaptically-driven electrical activity [7]: suppresses synaptically-driven electrical activity
